Laboratory results as given in patent US20100310553A1, “Compositions and Methods for Controlling Hepatitis C Virus Infection” (priority 2006, published 2010).

Legend:
apoB = apoB in media of HCV-infected Huh7.5 cells treated with inhibitor, Western blotting; format: cell-based; conditions: 1 μM; 4 days
Experimental: (§1) With reference to FIGS. 14A-14F, studies were carried out to determine the effects of an MTP inhibitor, CP-346086, on lipoprotein production/secretion and HCV production. […] To determine the effect of CP-346086 on HCV production, Huh7.5 cells were infected with HCV at 37° C. for 2 hr and then incubated with varying concentrations of CP-346086 for 4 days. The levels of apoB and apoE in the media were determined by Western blotting. […] The levels of HCV virions released into the media were initially determined by infectivity assay in cell culture. The naïve Huh7.5 cells were infected with HCV-containing media. At 3 days p.i., the levels of HCV NS3 protein and positive-stranded RNA were quantified by Western blotting and RPA, respectively. […] Similarly, CP-346086 lowered the infectious HCV titers by 1, 2, 3, and 4 orders of magnitude (10, 100, 1,000, and 10,000 times) at concentrations of 6.25, 12.5, 25, and 50 μM, respectively, as illustrated in FIG. 14E.

apoE = apoE in media of HCV-infected Huh7.5 cells treated with inhibitor, Western blotting; format: cell-based; conditions: 4 days
Experimental: as §1

HCV [1] = assay: HCV production: infectivity of media of CP-346086-treated, HCV-infected Huh7.5 cells on naive Huh7.5 cells; format: cell-based, Hepatitis C virus
Experimental: as §1

[2] = test system: subgenomic HCV replicon of genotype 2a; assay: HCV RNA replication in Huh7.5 cells harboring a subgenomic HCV replicon of genotype 2a; format: cell-based, Hepatitis C virus; conditions: subgenomic replicon genotype 2a, RPA
[3] = test system: apoB and triglyceride secretion; conditions: HepG2 cells; cited from earlier work
HCV [4] = assay: HCV production after treatment of HCV-infected cells with commercial inhibitors of lipoprotein assembly and secretion, RPA; format: cell-based, Hepatitis C virus; conditions: increasing concentrations; positive-strand HCV RNA by RPA, 3 days p.i.
Experimental: These inhibitors were used to treat HCV-infected cells. The culture supernatants were then used to infect naïve Huh7.5 cells. At 3 days p.i., the levels of positive-strand HCV RNA were determined by RPA.

HCV [5] = assay: HCV infection of Huh7.5 cells in the presence of apoE3 or apoC-I protein; format: cell-based, Hepatitis C virus; conditions: increasing concentrations (μg/ml); RPA
Experimental: With reference to FIGS. 16A and 16B, the effect of recombinant apolipoprotein E3 (apoE3) and purified apoC-I on HCV infection was investigated. Huh7.5 cells were infected with HCV in the presence of increasing concentrations (μg/ml) of apoE3 or apoC-I, as indicated on the top of the figures. At 3-hr p.i., the HCV-infected cells were washed with 1×PBS twice and were incubated with medium for 3 days. With reference to FIG. 16A, the levels of HCV NS3 protein in the cells infected with HCV in the presence of apoE3 were then determined by Western blot analysis using an NS3-specific monoclonal antibody and a cellular beta-actin protein as an internal control. With reference to FIG. 16B, HCV positive-strand RNA in the cells infected with HCV in the presence of apoC-I were quantified by RPA.

In the case of `O=C(Nc1ccc2c(c1)CCN(Cc1ncn[nH]1)C2)c1ccccc1-c1ccc(C(F)(F)F)cc1` [CP-346086], the apoB secretion (apoB) is reported as “almost completely blocked”, the “concentration up to which apoE secretion was not reduced” value (apoE) is reported as “above 3 μM” and the “lowering of infectious HCV titers” value (HCV [1]; 6.25 μM) is reported as 10 times. The “lowering of infectious HCV titers” value (HCV [1]; 12.5 μM) was 100 times, the “lowering of infectious HCV titers” value (HCV [1]; 25 μM) was 1,000 times and the “lowering of infectious HCV titers” value (HCV [1]; 50 μM) was 10,000 times. The “reduction of HCV positive-stranded RNA level” value (HCV [1]; 50 μM, 3 days p.i., RPA) was over 95%, the “reduction of HCV NS3 protein level” value (HCV [1]; 50 μM, 3 days p.i., Western blotting) was over 95% and the “HCV RNA replication” value [2] was “no significant effect”. For the same compound, the IC50 [3] was 2.6 nM.

With `COc1ccc(Cl)cc1C(=O)NCCc1ccc(S(=O)(=O)NC(=O)NC2CCCCC2)cc1` [glybenclamide] the “levels of HCV virion production” value (HCV [4]) was “significantly decreased”.

With `COc1ccc([C@@H]2CC(=O)c3c(O)cc(O)cc3O2)cc1O` [hesperetin] the “levels of HCV virion production” value (HCV [4]) was “significantly decreased”.

With `O=c1c(O)c(-c2ccc(O)c(O)c2)oc2cc(O)cc(O)c12` [quercetin] the “levels of HCV virion production” value (HCV [4]) was “significantly decreased”.

For “ApoC-I: purified apoC-I protein (TPDVSSALDKLKEFGNTLEDKARELISRIKQSELSAKMREWFSETFQKVKEKLKIDS; UniProt P02654 27-83, looked up)”, the “inhibition of HCV infection (HCV positive-strand RNA)” value (HCV [5]) was “inhibited HCV infection in a dose-dependent manner”.
